Experimental findings from ChEMBL document CHEMBL3593188, “Exploring the size adaptability of the B ring binding zone of the colchicine site of tubulin with para-nitrogen substituted isocombretastatins” (Eur J Med Chem, 2015) are described below.

In general, IC50 refers to the concentration at which inhibition is half-maximal. As usually defined, the solubility is how much of the substance goes into solution per volume. Low readings indicate a poorly soluble substance, high ones a readily soluble substance.

Values after ≈ are worked out from the molar mass of the structure shown. Active and inactive are the calls of the source. The calls are words filed in the database; no cut-off is given here. Where only a bound is given, the exact number is not on record here.

A short description of series [1]: Inhibition of calf brain tubulin polymerization after 20 mins by spectrophotometric analysis. Further details: species or system Bos taurus.
Series [2] relates to HT-29. Description: Cytotoxicity against human HT-29 cells assessed as inhibition of cell proliferation after 72 hrs by XTT assay. Type of series: functional, cell-based. The settings on record: HT-29, 72 h. Background: Tetrazolium assays rely on reduction of a dye to a coloured formazan, in cell work by metabolically active cells.
The nature of series [3]: Aqueous solubility of the compound in phosphate buffer at pH 7 after 48 hrs by spectrophotometric analysis. Type of series: physicochemical.
The subject of a further series is HeLa. Description: Cytotoxicity against human HeLa cells assessed as inhibition of cell proliferation after 72 hrs by XTT assay. Type of series: functional, cell-based.
In another series the test system is HL-60. Kind of series: Cytotoxicity against human HL60 cells assessed as inhibition of cell proliferation after 72 hrs by XTT assay. Conditions: HL-60, 72 h. It counts as functional, cell-based.
Series [4] relates to HT-29. Description: Cell cycle arrest in human HT-29 cells assessed as accumulation at G2/M phase at 100 nM after 24 hrs by propidium iodide staining-based flow cytometric analysis. Type of series: functional. Background: In flow cytometry, cells or beads pass a laser one at a time.
For series [5], the system named is HT-29. Kind of series: Cell cycle arrest in human HT-29 cells assessed as accumulation at G2/M phase at 50 nM after 24 hrs by propidium iodide staining-based flow cytometric analysis. Type of series: functional.
For the next series, the system named is HCT-116. Kind of series: Induction of microtubule disruption in human HCT116 cells at 50 nM after 24 hrs by DAPI staining-based confocal microscopic analysis. Type of series: cell-based.
Series [6] has as its system HT-29. Description: Inhibition of autophagy in human HT-29 cells assessed as accumulation of slower migrating LC3-I band at 35 nM after 24 to 72 hrs by Western blot analysis. It counts as functional, cell-based. (In general: Immunoblotting shows a protein as a band on a membrane.)
The test system of series [7] is HT-29. Kind of series: Inhibition of autophagy in human HT-29 cells assessed as absence of faster migrating LC3-II band decay at 35 nM after 24 to 72 hrs by Western blot analysis. Type of series: functional, cell-based.

On to `COc1ccc(/C=C\c2cc(OC)c(OC)c(OC)c2)cc1O` [COMBRETASTATIN A4], for which the figures for the IC50 (in series [1]; in the series on HT-29 [2]) were 3000 nM and 30 nM, respectively.

Molecule `COc1cc(/C(=N/O)c2ccc(N3CCCC3)cc2)cc(OC)c1OC` had a solubility at 48 h in series [3] of 13.7 µg/mL (≈ 38.4 µM). The IC50 in series [1] was more than 5000 nM; with HeLa, 600 nM; with HT-29 [2] it was more than 1000 nM; in the series on HL-60, 400 nM.

In the case of `CCn1c2ccccc2c2cc(/C(=N/O)c3cc(OC)c(OC)c(OC)c3)ccc21`, the concentration in solution in series [3] (solubility at 48 h) was 4.2 µg/mL (≈ 10.4 µM). The IC50 in series [1] was determined as 1600 nM; with HeLa, 100 nM; in the series with HT-29 [2] it was 300 nM; in the series with HL-60, 100 nM. Besides, the result in the series with HT-29 [4] was inactive.

Regarding `COc1cc(C(=O)c2ccc(N(C)C)c(N)c2)cc(OC)c1OC`, the IC50 was more than 5000 nM in series [1], 600 nM in the series on HeLa, 900 nM with HT-29 [2] and 700 nM in the series with HL-60.

In series [3], `CCn1c2ccccc2c2cc(C(=O)c3cc(OC)c(OC)c(OC)c3)ccc21` had a solubility at 48 h of 2 µg/mL (≈ 5.14 µM). Further, the IC50 in series [1] stood at 1600 nM; in the series with HeLa it was 700 nM; with HT-29 [2], 400 nM; in the series with HL-60, 700 nM. Further, the result in the series on HT-29 [4] was inactive.

In turn, `C=C(c1ccc(N(C)C)c(C=NO)c1)c1cc(OC)c(OC)c(OC)c1` came in with a solubility at 48 h in series [3] of 123 µg/mL (≈ 345 µM). The IC50 in series [1] is more than 5000 nM; with HeLa it was 900 nM; in the series on HT-29 [2] it was more than 1000 nM; with HL-60 it was 1000 nM.

Regarding `C=C(c1ccc(N(C)C)c(C=O)c1)c1cc(OC)c(OC)c(OC)c1`, the concentration in solution in [3] (solubility at 48 h) was 107 µg/mL (≈ 313 µM). The IC50 in series [1] is more than 10000 nM; with HeLa, 800 nM; in the series with HT-29 [2] it was more than 1000 nM; in the series with HL-60, 900 nM.

The molecule `COc1cc(C(=O)c2ccc(N3CCCC3)cc2)cc(OC)c1OC` came in with a solubility at 48 h in [3] of 2.6 µg/mL (≈ 7.62 µM). The IC50 is more than 5000 nM in [1], 800 nM in the series with HeLa, more than 1000 nM in the series with HT-29 [2] and 800 nM in the series with HL-60.

In [3], `C/C=C(/c1cc(OC)c(OC)c(OC)c1)c1ccc2c(c1)c1ccccc1n2CC` showed a solubility at 48 h of 1.8 µg/mL (≈ 4.48 µM). The half-inhibitory concentration (IC50) in series [1] was 1500 nM; in the series with HeLa it was 700 nM; in the series on HT-29 [2] it was 560 nM; in the series on HL-60, 400 nM. The result in the series on HT-29 [4] was inactive.

The molecule `C=C(c1ccc(N(C)C)c(C#N)c1)c1cc(OC)c(OC)c(OC)c1` registered a solubility at 48 h in series [3] of 84 µg/mL (≈ 248 µM). Also, the IC50 in series [1] was more than 5000 nM; in the series on HeLa it was 400 nM; in the series on HT-29 [2], 960 nM; in the series on HL-60 it was 800 nM.

In the case of `COc1cc(/C(=N/O)c2ccc(N(C)C)cc2)cc(OC)c1OC`, the concentration in solution in [3] (solubility at 48 h) was 74 µg/mL (≈ 224 µM). Also, the half-inhibitory concentration (IC50) was more than 10000 nM in series [1], 800 nM in the series with HeLa, 10000 nM in the series with HT-29 [2] and 600 nM in the series on HL-60.

For `C=C(c1cc(OC)c(OC)c(OC)c1)c1ccc2c(c1)c1ccccc1n2CC`, the concentration in solution in [3] (solubility at 48 h) was 2.5 µg/mL (≈ 6.45 µM). Moreover, the IC50 in [1] worked out at 900 nM; in the series on HeLa, 80 nM; with HT-29 [2], 200 nM; in the series with HL-60 it was 90 nM. The result in the series on HT-29 [4] was Active.

With `C=C(c1ccc(N2CCCC2)cc1)c1cc(OC)c(OC)c(OC)c1`, the solubility at 48 h in [3] was determined as 1.3 µg/mL (≈ 3.83 µM). Besides, the IC50 in series [1] came out at 1100 nM; in the series with HeLa, 200 nM; with HT-29 [2] it was 600 nM; with HL-60, 400 nM. The outcome with HT-29 [4] was Active.

As for `COc1cc(C(=O)c2ccc(N(C)C)cc2)cc(OC)c1OC`, the IC50 in [1] is more than 20000 nM; in the series with HeLa, 90 nM; in the series with HT-29 [2], 400 nM; in the series on HL-60 it was 200 nM.

As to `C=C(c1ccc(N(C)C)c(N)c1)c1cc(OC)c(OC)c(OC)c1`, the IC50 in [1] was more than 5000 nM; in the series with HeLa it was 500 nM; with HT-29 [2] it was 600 nM; in the series on HL-60, 400 nM.

Consider `COc1cc(C(=O)c2ccc(N(C)C)c(C=O)c2)cc(OC)c1OC`, for which, in series [3], the concentration in solution (solubility at 48 h) was 8.9 µg/mL (≈ 25.9 µM). The IC50 in series [1] is more than 20000 nM; in the series on HeLa, more than 1000 nM; in the series with HT-29 [2] it was more than 1000 nM; in the series with HL-60 it was more than 1000 nM.

Consider `COc1cc(C(=O)c2ccc(N(C)C)c([N+](=O)[O-])c2)cc(OC)c1OC`, for which, in series [3], the solubility at 48 h worked out at 3.7 µg/mL (≈ 10.3 µM). Further, the IC50 in series [1] is more than 20000 nM; in the series on HeLa it was more than 1000 nM; with HT-29 [2] it was more than 1000 nM; with HL-60, more than 1000 nM.

`C=C(c1ccc(N(C)C)cc1)c1cc(OC)c(OC)c(OC)c1` registered a solubility at 48 h in series [3] of 30 µg/mL (≈ 95.7 µM). Also, the IC50 amounted to 1900 nM in series [1], 40 nM in the series with HeLa, 70 nM with HT-29 [2] and 10 nM with HL-60. For the same molecule, in the series with HT-29 [5], the Activity was more than 85%. Further, the outcome with HCT-116 was Active. In addition, the inhibition result in the series on HT-29 [6] and in the series with HT-29 [7] was “Active” throughout.

In turn, `C=C(c1cc(OC)c(OC)c(OC)c1)c1ccc(N(C)C)c(C2OCCO2)c1` displayed a solubility at 48 h in series [3] of 11 µg/mL (≈ 28.5 µM). In addition, the IC50 in [1] was more than 5000 nM; with HeLa, 600 nM; in the series with HT-29 [2], more than 1000 nM; with HL-60 it was 800 nM.
